Each structure is given as a SMILES string.

This test concerns the target TLR4 (toll-like receptor 4) (Homo sapiens, UniProt O00206). The test is described as follows: TLR4 ELISA on lysates of human PBMCs treated with AVR-25 for […] h, dose response. Format: cell-based.

Sequence of TLR4 (toll-like receptor 4) (O00206 24-839): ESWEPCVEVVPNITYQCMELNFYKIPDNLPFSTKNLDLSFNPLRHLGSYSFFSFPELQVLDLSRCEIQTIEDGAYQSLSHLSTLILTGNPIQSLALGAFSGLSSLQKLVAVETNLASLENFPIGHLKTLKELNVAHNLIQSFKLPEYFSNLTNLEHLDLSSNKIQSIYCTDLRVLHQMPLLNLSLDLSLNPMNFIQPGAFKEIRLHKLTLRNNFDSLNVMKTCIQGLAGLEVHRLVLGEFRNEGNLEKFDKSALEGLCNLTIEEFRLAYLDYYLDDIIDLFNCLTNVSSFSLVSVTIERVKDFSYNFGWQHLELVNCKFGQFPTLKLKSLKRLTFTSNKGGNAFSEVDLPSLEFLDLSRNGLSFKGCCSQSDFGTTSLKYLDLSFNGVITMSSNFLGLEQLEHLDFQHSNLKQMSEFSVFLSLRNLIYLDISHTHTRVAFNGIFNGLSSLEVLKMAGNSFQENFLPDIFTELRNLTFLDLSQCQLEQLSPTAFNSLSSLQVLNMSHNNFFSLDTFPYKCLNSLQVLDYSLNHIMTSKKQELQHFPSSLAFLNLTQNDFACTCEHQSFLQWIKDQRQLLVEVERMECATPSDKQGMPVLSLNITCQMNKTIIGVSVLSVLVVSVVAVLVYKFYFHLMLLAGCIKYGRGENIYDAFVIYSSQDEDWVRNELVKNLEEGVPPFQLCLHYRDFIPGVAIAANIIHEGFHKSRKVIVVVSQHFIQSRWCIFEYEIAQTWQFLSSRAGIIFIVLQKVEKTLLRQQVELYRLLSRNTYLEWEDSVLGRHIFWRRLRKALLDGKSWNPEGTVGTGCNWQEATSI

The compound `CC(=O)N[C@H]1[C@H](OC2CCCCC2)O[C@H](CO)[C@@H](O[C@@H]2O[C@H](CO)[C@@H](O)[C@H](O)[C@H]2NC(C)=O)[C@@H]1O` [AVR-25, N-((2R,3R,4R,5S,6R)-5-(((2S,3R,4R,5S,6R)-3-acetamido-4,5-dihydroxy-6-(hydroxymethyl)tetrahydro-2H-pyran-2-yl)oxy)-2-(cyclohexyloxy)-4-hydroxy-6-(hydroxymethyl)tetrahydro-2H-pyran-3-yl)acetamide] gave an IC50 of 150 nM.

For the origin of these results see paper PMC6393422, “Novel Chitohexaose Analog Protects Young and Aged mice from CLP Induced Polymicrobial Sepsis” (Scientific Reports, 2019).
